{
  "source": "patent US20080108603A1",
  "about": "“COMBINATION THERAPY FOR THE TREATMENT OF PAIN” (priority 2006, published 2008)",
  "key": {"adult male rats": {"tested_on": "adult male rats", "experiment": "Postincisional hypersensitivity model of postoperative pain (paw incision, withdrawal threshold to von Frey filaments)", "format": "in vivo, rat", "conditions": "intrathecal (i.t.) single drug; for anti-hypersensitivity effect (mechanical hypersensitivity), single drug: 24 h after paw incision surgery, 210 min observation", "experimental": "Animal preparation: Following Animal Care and Use Committee approval, an intrathecal (i.t.) catheter with tip in the lumbar space is inserted as previously described in adult male rats weighing 250 g (Yaksh and Rudy, Physiol Behav. 1976, 7, 1032-1036). One week following the insertion of the i.t. catheter, paw incision surgery is performed as previously described (Brennan et al., Pain 1996, 64, 493-501). Briefly, animals are anesthetized with halothane, and a 1-cm long incision is made in the plantar aspect of the left hind paw starting 0.5 cm from the edge of the heel toward the toe after sterile preparation with 70% ethanol. The plantaris muscle is elevated and incised longitudinally. The wound is closed with 2 mattress sutures of 5.0 silk. Subsequently, withdrawal threshold to von Frey filaments is determined one day after surgery (Chaplanet al., J. Neurosci. Methods, 1994, 53, 55-63). For all testing but pilot dose ranging studies, investigators are blinded to study drug administration. A cut off value of 22 g is used.\nExperimental Design: Twenty-four hours after paw incision surgery, single drugs and their combinations are studied: T-62, morphine and NBQX.\nSingle drug injection: For single drug administration, a volume containing 5 μL drug is used, followed by 10 μL of saline. The anti-hypersensitivity effects for single drugs at three doses with logarithmic spacing are studied over a 210 min observation period with testing at 30 min interval. Dose response curves are first constructed, and ED40 values for single drugs are then determined at the time of peak effect.\nDrug interaction: For the combination of T-62 with morphine and NBQX, two injections are performed since the time of peak effect for morphine and NBQX is 30 min earlier than that of T-62 (T-62 is injected 30 min before drug injections). Paw withdrawal thresholds are determined before surgery, before drug injection, and 30, 60, 90, 120, 150, 180, and 210 min after the second drug injection. In addition, a fixed fractional dose ratio of 1:1 (w:w) is used for the combination of T-62 with morphine and NBQX. The dose response curves are then constructed for the combined drugs, and the ED40 values of the combined drugs are calculated at the time point of peak effect. Subsequently, isobolograms are constructed based on the ED40 values from single and combined drug administration.\nMaterials: T-62 may be obtained from King Pharmaceuticals (Cary, N.C.). T-62 is dissolved in saline with 20% DMSO. Morphine may be purchased from Astra Pharmaceutical Products, Inc. (Westborough, Mass.). NBQX and the remaining chemicals may be purchased from Sigma Chemical Co. (St. Louis, Mo.). Saline is used as vehicle for morphine and NBQX.\nData analysis: Data are presented as mean ±S.E. Withdrawal threshold data are analyzed by two-way analysis of variance followed by Fisher's LSD test. P<0.05 is considered significant. Isobolograms are statistically analyzed by student T test."}, "adenosine A1 receptors": {"molecular_target": "T1, adenosine A1 receptors (Rattus norvegicus, UniProt P25099)", "T1 sequence (P25099 1-326)": "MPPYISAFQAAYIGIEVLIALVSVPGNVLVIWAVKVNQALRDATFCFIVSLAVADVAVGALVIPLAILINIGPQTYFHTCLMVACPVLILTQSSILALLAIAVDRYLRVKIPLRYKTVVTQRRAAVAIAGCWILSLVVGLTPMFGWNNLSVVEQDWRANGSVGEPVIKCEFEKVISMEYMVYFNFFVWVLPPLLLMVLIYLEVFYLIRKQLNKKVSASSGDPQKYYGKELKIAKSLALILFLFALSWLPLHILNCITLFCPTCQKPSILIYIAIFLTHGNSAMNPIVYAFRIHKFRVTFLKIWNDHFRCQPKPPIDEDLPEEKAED", "conditions": "from Li et al., Pan et al., U.S. Pat. No. 6,248,774 and 6,489,356; cited from earlier work"}, "male Sprague-Dawley rats": {"tested_on": "male Sprague-Dawley rats", "experiment": "Neuropathic pain model (Chung model, spinal nerve ligation, withdrawal threshold to von Frey filaments)", "format": "in vivo, rat", "conditions": "for anti-allodynic effect (withdrawal threshold): single intrathecal injection, at least 4 weeks after spinal nerve ligation, up to 20 hr", "from_the_text": "Spinal Nerve Ligation: After Animal Care and Use Committee approval, male Sprague-Dawley rats (Harlan, Indianapolis, Ind., USA) weighing 180-200 g undergo anesthesia as previously described by Kim and Chung (Pain 1992, 50, 355-363). Briefly, under general anesthesia with inhalational halothane, the left L5 and L6 spinal nerves are identified through a small laminotomy and tightly ligated. Approximately one week later, an intrathecal catheter is placed under general anesthesia by insertion under direct vision of a polyethylene catheter through a small slit in the dura at the cisterna magnum, and advanced 8.5 cm such that the catheter tip resides in the lower lumbar intrathecal space. Animals are studied approximately one week later. Ligation of the lumbar spinal nerves results in a primarily unilateral increase in the sensitivity to light touch on the operated side. Sensitivity is assessed via application of calibrated von Frey filaments. The withdrawal threshold is determined using an up down method as previously described by Chaplan et al. (J. Neurosci. Methods 1994, 53, 55-63).\nExperimental Design: Animals receive, at least 4 weeks after spinal nerve ligation surgery, and at least 1 week after intrathecal catheter insertion, single injections of vehicle (β-cyclodextrin) or the drug substance, using a randomized and blinded protocol. Withdrawal thresholds are determined at intervals for up to 20 hr after injection."}},
  "note": "“Also recorded” adds a separate entry of the source.",
  "data": [
    {"smiles": "CN1CC[C@]23c4c5ccc(O)c4O[C@H]2[C@@H](O)C=C[C@H]3[C@H]1C5", "note": "[Morphine, morphine]", "values": [
      {"measurement": "time of peak effect after injection", "setting": "adult male rats", "result": 30, "unit": "min"},
      {"measurement": "anti-hypersensitivity effect (mechanical hypersensitivity), single drug", "setting": "adult male rats", "result": "reduces mechanical hypersensitivity in a time and dose dependent manner"}
    ]},
    {"smiles": "NS(=O)(=O)c1cccc2c1c([N+](=O)[O-])cc1nc(O)c(O)nc12", "note": "[NBQX, 2,3-dihydroxy-6-nitro-7-sulfamoylbenzo(f)quinoxaline]", "values": [
      {"measurement": "time of peak effect after injection", "setting": "adult male rats", "result": 30, "unit": "min"},
      {"measurement": "anti-hypersensitivity effect (mechanical hypersensitivity), single drug", "setting": "adult male rats", "result": "reduces the mechanical hypersensitivity in a time and dose dependent manner"}
    ]},
    {"smiles": "Nc1sc2c(c1C(=O)c1ccc(Cl)cc1)CCCC2", "note": "[T-62, (2-amino-4,5,6,7-tetrahydrobenzo[b]thiophen-3-yl)(4-chlorophenyl)methanone]", "values": [
      {"measurement": "effect on inflammatory and neuropathic pain", "setting": "adenosine A1 receptors", "result": "reduce inflammatory and neuropathic pain"},
      {"measurement": "anti-allodynic effect (withdrawal threshold)", "setting": "male Sprague-Dawley rats", "result": "dose-dependent anti-allodynic effects"},
      {"measurement": "anti-hypersensitivity effect (mechanical hypersensitivity), single drug", "setting": "adult male rats", "result": "modest effect; also recorded: reduced mechanical hypersensitivity in a time dependent manner"}
    ]},
    {"smiles": "Nc1sc2c(c1C(=O)c1ccccc1)CCS2", "note": "[formula (Ib)]", "values": [
      {"measurement": "anti-allodynic effect (withdrawal threshold)", "setting": "male Sprague-Dawley rats", "result": "dose-dependent anti-allodynic effects"}
    ]},
    {"smiles": "Nc1sc2c(c1C(=O)c1cccc3ccccc13)CCC2", "note": "[formula (Ic)]", "values": [
      {"measurement": "relative potency among the three enhancers", "setting": "male Sprague-Dawley rats; Chung model of chronic neuropathic pain, FIG. 8", "result": "most potent"},
      {"measurement": "anti-allodynic effect (withdrawal threshold)", "setting": "male Sprague-Dawley rats", "result": "dose-dependent anti-allodynic effects"}
    ]}
  ]
}
